Assays:
[1] = tested on: mitotic spindle structure in fungi; conditions: cited from earlier work
[2] = tested on: CIK1; test: Boolean network analysis of joint drug response and gene disruption expression matrices (virtual gene); type: cell-based, Saccharomyces cerevisiae
From the text: In addition to the Boolean methods for gene disruption experiments reported elsewhere^(11), we created a gene expression matrix E from a set of the drug treatment experiments combined with disruptant expression data. In the case of drug generated perturbation, we created a “virtual” gene to represent the drug affect analogous to a gene disruption. We then were able to use standard disruption matrix algorithms designed for disruption based data.
In YPD, 314 genes were defined as “transcription factors”, and 98 of these have previously been studied for control mechanism. The expression profile data of 552 genes including the genes that are controlled by these 98 “transcription factors” were selected from 5871 profiles. Thus we constructed the gene regulatory network from the expression profile data set based on the values of these 552 genes in 120 gene disruption experiments and 20 drug treatment experiments.
However, the use of gene regulatory network models, combined with the drug perturbation data allows for a hierarchical gene regulatory view of the drug's interaction with genes in the transcriptome. To generate this gene network drug perturbation data, we first created a full genome expression library of 542 single-gene disruption mutants. The 120 array data selected from the library was logically joined with the array matrices generated from the Griseofulvin experiments. […]

[3] = tested on: mitotic spindle structure in yeast; test: Pathological and microscopic examination of Griseofulvin treated yeast versus CIK1 disrupted yeast; type: cell-based
From the text: CIK1 codes for a protein described in the yeast proteome database (YPD) as a coiled-coil protein of the spindle pole body involved in spindle formation and the congression (nuclear migration) step of karyogamy^(13). Since the action of Griseofulvin is known to affect mitotic spindle formation, which is in agreement with the function of CIK1^(14), we performed a pathological examination of a yeast strain with a disrupted CIK1 gene and yeast affected by Griseofulvin.

[4] = tested on: yeast strain BY4741; test: Drug response full-genome cDNA microarray gene expression experiments; type: cell-based, Saccharomyces cerevisiae; conditions: among 552 genes which differed in expression between drug treated and normal yeast; dosages of 10, 50 and 100 mg in 10 ml of DMF; 0, 15, 30, 45 and 60 minutes
Procedure: The yeast strain used in this study is BY4741. To monitor the gene expression profile, cells were pre-grown at 30° C. in YPD (2% polypeptone, 1% yeast extract and 2% glucose) to mid-exponential phase and were exposed with Griseofulvin by adding it to the medium to the concentrations at 0, 10, 25, 50, and 100 mg/ml. The exposed cells were harvested at 0, 15, 30, 45 and 60 min after addition by Griseofulvin and used for RNA extraction. Total RNAs were extracted by the hot-phenol method.
We measured the quantities of 5871 mRNA species from 20 drug treated strains by cDNA microarray assay. A difference in fluorescent strength between Cy3, Cy5 causes bias of the expression quantity ratio. We normalized the expression quantity ratios of each expression profile. […] The logarithm value of the ratio was used to indicate the standard expression level, therefore we found the logarithm value of ratio and calculated the average and standard deviation of these log values (see table1). The Standard Deviation (SD) of expression levels of all spotted genes from the UME6 (YDR207C) disruptant expression array for which UME6 is defined as a “Global Regulator” in YPD^(33) disruptant was 0.4931, therefore we recognized that there are an unacceptable number of errors in array data whose overall SD was larger than 0.5 and eliminated such experiments from analysis. […]

**Q.** For `COC1=CC(=O)C[C@@H](C)[C@]12Oc1c(Cl)c(OC)cc(OC)c1C2=O` [Griseofulvin], which “effect on mitotic spindle structure” value [1] is on record?
**A.** disrupts mitotic spindle structure in fungi to lead to metaphase arrest

**Q.** And the “suppression of CIK1 expression” value ([2]; among the 8 first-effect genes, across the experiments)?
**A.** strongest suppression effects

**Q.** And the “genes consistently and significantly suppressed as first effects” value ([2]; at each time and drug concentration)?
**A.** 8 genes

**Q.** And the “mitotic spindle structure compared with CIK1 deleted yeast” value ([3]; microscopic examination)?
**A.** very similar changes of the spindle body and surrounding organizational structures

**Q.** And the lethality to yeast ([3]; normal physiological dosage)?
**A.** neither the treatment with Griseofulvin at normal physiological dosage nor the disruption of CIK1 are lethal

**Q.** And the “genes downregulated by over a 2 sigma threshold” value [4]?
**A.** 183 genes

Source: patent US20030219764A1, “Biological discovery using gene regulatory networks generated from multiple-disruption expression libraries” (priority 2001, published 2003)
